Data: publication PMC7044277 (Nature Communications, 2020)
Where “and” joins values, the source holds several entries; their conditions need not be identical. Identical values can stand only once.

How the values were obtained:
Format in all cases: cell-based
[1] = biological target: T1, 320 non-olfactory GPCRs (Homo sapiens, UniProt P18089)
T1 construct: expressed in transfected cells; host or cells: HTLA cells

[2] = biological target: T2, 320 non-olfactory GPCRs (Homo sapiens, UniProt P24530)
T2 construct: expressed in transfected cells; host or cells: HTLA cells
T2 sequence (P24530 27-442): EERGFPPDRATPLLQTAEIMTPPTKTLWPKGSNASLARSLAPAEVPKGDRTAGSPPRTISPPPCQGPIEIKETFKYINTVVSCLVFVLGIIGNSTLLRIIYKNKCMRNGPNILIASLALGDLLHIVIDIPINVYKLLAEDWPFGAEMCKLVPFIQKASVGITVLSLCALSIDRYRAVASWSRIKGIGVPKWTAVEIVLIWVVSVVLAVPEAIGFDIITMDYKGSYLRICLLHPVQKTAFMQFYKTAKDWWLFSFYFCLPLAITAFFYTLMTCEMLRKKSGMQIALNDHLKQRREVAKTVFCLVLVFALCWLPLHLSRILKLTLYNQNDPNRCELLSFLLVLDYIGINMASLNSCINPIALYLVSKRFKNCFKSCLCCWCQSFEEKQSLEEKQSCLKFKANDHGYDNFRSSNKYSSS

[3] = biological target: 320 non-olfactory GPCRs (Homo sapiens, UniProt P30411)
320 non-olfactory GPCRs (Homo sapiens, UniProt P30411), sequence (P30411 whole entry): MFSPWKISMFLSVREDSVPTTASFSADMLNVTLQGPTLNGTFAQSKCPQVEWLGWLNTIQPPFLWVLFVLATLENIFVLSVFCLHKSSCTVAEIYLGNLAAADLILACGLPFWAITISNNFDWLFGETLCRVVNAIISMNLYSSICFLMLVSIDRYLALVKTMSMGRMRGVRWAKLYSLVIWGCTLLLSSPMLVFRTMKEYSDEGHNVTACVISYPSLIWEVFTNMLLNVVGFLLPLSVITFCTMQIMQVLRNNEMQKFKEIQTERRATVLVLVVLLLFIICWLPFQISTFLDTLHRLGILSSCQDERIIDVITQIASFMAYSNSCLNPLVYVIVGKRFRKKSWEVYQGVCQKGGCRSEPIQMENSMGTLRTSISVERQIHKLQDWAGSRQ

[4] = biological target: 320 non-olfactory GPCRs (Homo sapiens, UniProt P30542)
320 non-olfactory GPCRs (Homo sapiens, UniProt P30542), sequence (P30542 whole entry): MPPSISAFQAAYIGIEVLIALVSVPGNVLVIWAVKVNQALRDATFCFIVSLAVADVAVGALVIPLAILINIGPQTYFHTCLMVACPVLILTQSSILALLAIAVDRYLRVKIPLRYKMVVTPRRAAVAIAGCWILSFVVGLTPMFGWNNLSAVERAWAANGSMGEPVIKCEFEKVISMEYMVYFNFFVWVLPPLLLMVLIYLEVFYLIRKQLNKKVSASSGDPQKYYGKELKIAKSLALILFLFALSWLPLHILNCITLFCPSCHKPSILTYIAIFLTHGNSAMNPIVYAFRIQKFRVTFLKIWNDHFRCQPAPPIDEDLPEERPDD
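Note: compound tested at 1 µM final concentration.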

T1 sequence (P18089 whole entry): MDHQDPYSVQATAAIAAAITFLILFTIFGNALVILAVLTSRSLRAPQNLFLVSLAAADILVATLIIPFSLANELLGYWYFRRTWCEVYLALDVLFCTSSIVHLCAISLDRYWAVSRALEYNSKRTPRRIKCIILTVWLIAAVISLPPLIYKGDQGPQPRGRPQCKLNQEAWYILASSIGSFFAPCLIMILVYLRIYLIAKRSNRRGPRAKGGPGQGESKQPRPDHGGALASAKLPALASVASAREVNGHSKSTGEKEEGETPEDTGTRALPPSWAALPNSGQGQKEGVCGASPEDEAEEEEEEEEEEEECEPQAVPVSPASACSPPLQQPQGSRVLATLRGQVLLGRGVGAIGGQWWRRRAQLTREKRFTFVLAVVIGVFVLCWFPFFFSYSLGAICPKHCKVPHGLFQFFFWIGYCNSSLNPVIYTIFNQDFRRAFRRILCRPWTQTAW

**Q.** Which “Fold of Basal” value [1] does the source give for `CCOc1cccc2cc(C(C)NCC3(O)CCCCC3)oc12` (stereo not shown) [O4LE6] here?
**A.** 0.5251 and 0.72 and 0.7774 and 1.019

**Q.** And the “Fold of Basal” value [2]?
**A.** 0.7302 and 0.8478 and 0.8324 and 1.412

**Q.** What about the “Fold of Basal” value [3] of the same compound?
**A.** 1.112 and 0.7321 and 0.9055 and 1.0914

**Q.** What about the “Fold of Basal” value [4] of the same compound?
**A.** 0.6117 and 1.0436 and 0.9318 and 0.9525
